This note sets out measurements from BindingDB's records for doi:10.1021/bi000930v (Max Planck Institute, 2001).

For assay [1], the target named is T1, E3 ubiquitin-protein ligase Mdm2 (Homo sapiens, UniProt Q00987). The assay can be described thus: p53-MDM2 Binding ELISA. The following applies: pH 7.4; 23 °C. How it is done: Interference of the p53-MDM2 binding by test compounds was measured in a 96-well polypropylene round-bottom microtiter plate (Costar, Serocluster). Human MDM2 (amino acids 1-118) was preincubated with 10% DMSO or compounds in assay buffer. After 15-min incubation of the sample, a biotinylated p53-derived peptide was added. As a negative control, buffer only was added into separate wells (blanks). After another 30 min, the incubation mixture was added to 96-well plates coated with streptavidin. After 1 h, the wells were extensively washed. Then, the MDM2 specific antibody was added. After 1 h, the wells were thoroughly washed and the secondary antibody (anti-rabbit-IgG-POD) was added. After another hour, the wells were washed, and the peroxidase subtrate ABTS was added. After 30 min, OD 405/490 nm was determined with a Dynatech MR 7000 ELISA reader.
T1 sequence (Q00987 whole entry, the tested form may be a part): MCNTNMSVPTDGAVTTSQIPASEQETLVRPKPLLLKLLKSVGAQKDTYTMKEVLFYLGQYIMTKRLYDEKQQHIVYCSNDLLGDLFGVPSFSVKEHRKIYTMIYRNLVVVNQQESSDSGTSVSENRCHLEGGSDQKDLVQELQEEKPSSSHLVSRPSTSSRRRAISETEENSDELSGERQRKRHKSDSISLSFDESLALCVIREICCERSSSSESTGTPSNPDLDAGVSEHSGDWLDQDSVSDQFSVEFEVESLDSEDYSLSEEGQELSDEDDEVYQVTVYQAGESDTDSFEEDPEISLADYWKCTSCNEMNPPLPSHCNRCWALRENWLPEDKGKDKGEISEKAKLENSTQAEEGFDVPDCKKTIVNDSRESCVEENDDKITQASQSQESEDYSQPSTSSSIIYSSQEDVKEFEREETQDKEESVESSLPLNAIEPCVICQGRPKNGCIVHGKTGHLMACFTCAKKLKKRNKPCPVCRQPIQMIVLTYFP
(In an ELISA, binding on a coated surface is turned into a signal by an enzyme label.)

The target in assay [2] is T1, E3 ubiquitin-protein ligase Mdm2. The assay can be described thus: NMR Titration Experiment. The following applies: pH 7.4; 23 °C. The method, then: NMR measurements consisted of monitoring changes in chemical shifts and line widths of the backbone amide resonances of uniformly 15N-enriched MDM2 samples in a series of HSQC spectra as a function of a ligand concentration. The complexes of human MDM2 and the chalcones were prepared by mixing the protein and the ligand in the NMR tube. Typically, NMR spectra were recorded 15 min after mixing at room temperature. An initial screening of all compounds used in this study was performed with a 10-fold molar excess of chalcone to human MDM2. […] All KD values obtained by NMR spectroscopy are based on at least six data points.

`Oc1ccc2ccc3c(c2c1)CN(Cc1ccccc1)CO3` [Chalcone derivative, D] yielded a concentration for half-maximal inhibition (IC50) in assay [1] of more than 250 µM.

Turning to `O=C(O)COc1c(Br)cc(/C=C/C(=O)c2ccc3ccccc3c2)cc1Br` [Chalcone derivative, N], binding in assay [2] was characterised by a dissociation constant (Kd) of 270 µM.

In assay [1], `CCOC(=O)C(C)(C)Oc1ccc(CCNC(=O)/C=C/C(=O)c2ccc(Cl)cc2)cc1` [Chalcone derivative, E] displayed a half-inhibitory concentration (IC50) of more than 250 µM.

For the compound `O=C(CC(=Nc1ccccc1)c1ccccc1)Nc1ccccc1` [Chalcone derivative, F], the half-maximal inhibitory concentration (IC50) in assay [1] was more than 250 µM.

In the case of `O=C(C(=S)Nc1ccccc1)C(C=Nc1ccccc1)c1ccccc1` (centres undefined) [Chalcone derivative, H], in assay [1], the IC50 was more than 250 µM.

`O=C(O)COc1ccc(C(=O)/C=C/c2ccc(Cl)c(Cl)c2)cc1` [Chalcone derivative, B-1]: the affinity in assay [2], expressed as Kd, was 150 µM. For the same compound, the half-inhibitory concentration (IC50) in assay [1] amounted to 117 µM.

`CCOc1ccc(NC(=O)CC(=Nc2ccccc2)c2ccccc2)cc1` [Chalcone derivative, G] gave a concentration for half-maximal inhibition (IC50) in assay [1] of more than 250 µM.

For `CC(C)(Oc1ccc(/C=C/C(=O)c2ccc(Cl)cc2)cc1)C(=O)O` [Chalcone derivative, C], the Kd in assay [2] turned out to be 244 µM. In assay [1], this compound showed a half-maximal inhibitory concentration (IC50) of 250 µM.

Take `O=C(O)COc1ccc(/C=C/C(=O)c2ccc(Cl)cc2)cc1` [Chalcone derivative, A]: in assay [2], the Kd was 220 µM. Besides, the half-maximal inhibitory concentration (IC50) in assay [1] was 206 µM.

In assay [2], `O=C(O)COc1ccc(/C=C/C(=O)c2ccc(Cl)c(Cl)c2)cc1` [Chalcone derivative, B] registered an equilibrium dissociation constant (Kd) of 90 µM. Further, the half-inhibitory concentration (IC50) in assay [1] was 49 µM.

As a reminder, the IC50 is the concentration that gives 50% inhibition. One may read the Kd as the constant that tells how readily two partners part at equilibrium.
